Read-outs that look alike come from different tables or passages of the source.
Key:
USP1-UAF1 = USP1-UAF1 (Homo sapiens, UniProt O94782); assay: Ubiquitin Rhodamine assay for USP1-UAF1 activity; type: biochemical
Procedure: Certain compounds of the disclosure were assessed for USP1-UAF1 activity in a Ubiquitin Rhodamine assay as described in Example 135.

[1] = system: MDA-MB-436 (BRCA1 mutant) cell line; assay: Viability assay in BRCA1 mutant cell line MDA-MB-436; type: cell-based; settings: Homo sapiens, MDA-MB-436, viability, BRCA1 mutant MDA-MB-436; read-out: MDA-MB-436 rel IC50
Description: (§1) Table 1 also indicates IC50 values in a viability assay for a non-isogenic pair of BRCA1 mutant (column 5—MDA-MB-436) and BRCA1 WT (column 6—HCC1954) cell lines. These values indicate the effect of treatment with compound on cell survival.

[2] = system: HCC1954 (BRCA1 WT) cell line; assay: Viability assay in BRCA1 WT cell line HCC1954; type: cell-based; settings: read-out: HCC 1954 IC50 rel IC50
Description: as §1

USP1-UAF1, sequence (O94782 whole entry): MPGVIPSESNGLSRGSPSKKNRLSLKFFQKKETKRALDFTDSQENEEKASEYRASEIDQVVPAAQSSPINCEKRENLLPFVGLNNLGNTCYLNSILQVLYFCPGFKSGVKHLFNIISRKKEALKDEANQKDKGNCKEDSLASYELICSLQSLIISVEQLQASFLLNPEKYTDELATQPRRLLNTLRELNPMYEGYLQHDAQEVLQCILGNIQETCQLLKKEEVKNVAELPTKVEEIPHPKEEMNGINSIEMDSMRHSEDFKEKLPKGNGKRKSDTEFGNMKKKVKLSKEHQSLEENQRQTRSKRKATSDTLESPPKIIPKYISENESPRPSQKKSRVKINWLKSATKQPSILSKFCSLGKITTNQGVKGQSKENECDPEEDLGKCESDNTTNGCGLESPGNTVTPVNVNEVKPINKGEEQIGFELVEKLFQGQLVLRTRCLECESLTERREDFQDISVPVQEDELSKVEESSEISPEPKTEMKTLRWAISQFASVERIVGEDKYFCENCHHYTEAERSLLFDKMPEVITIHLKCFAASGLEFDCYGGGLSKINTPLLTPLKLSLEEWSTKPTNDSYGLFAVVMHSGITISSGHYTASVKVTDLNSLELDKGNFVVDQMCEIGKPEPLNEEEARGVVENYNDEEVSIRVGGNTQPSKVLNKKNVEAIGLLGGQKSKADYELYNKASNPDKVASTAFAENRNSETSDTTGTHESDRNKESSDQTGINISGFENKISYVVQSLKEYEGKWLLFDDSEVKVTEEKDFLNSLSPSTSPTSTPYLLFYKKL
USP1-UAF1, sequence (Q8TAF3 whole entry partner): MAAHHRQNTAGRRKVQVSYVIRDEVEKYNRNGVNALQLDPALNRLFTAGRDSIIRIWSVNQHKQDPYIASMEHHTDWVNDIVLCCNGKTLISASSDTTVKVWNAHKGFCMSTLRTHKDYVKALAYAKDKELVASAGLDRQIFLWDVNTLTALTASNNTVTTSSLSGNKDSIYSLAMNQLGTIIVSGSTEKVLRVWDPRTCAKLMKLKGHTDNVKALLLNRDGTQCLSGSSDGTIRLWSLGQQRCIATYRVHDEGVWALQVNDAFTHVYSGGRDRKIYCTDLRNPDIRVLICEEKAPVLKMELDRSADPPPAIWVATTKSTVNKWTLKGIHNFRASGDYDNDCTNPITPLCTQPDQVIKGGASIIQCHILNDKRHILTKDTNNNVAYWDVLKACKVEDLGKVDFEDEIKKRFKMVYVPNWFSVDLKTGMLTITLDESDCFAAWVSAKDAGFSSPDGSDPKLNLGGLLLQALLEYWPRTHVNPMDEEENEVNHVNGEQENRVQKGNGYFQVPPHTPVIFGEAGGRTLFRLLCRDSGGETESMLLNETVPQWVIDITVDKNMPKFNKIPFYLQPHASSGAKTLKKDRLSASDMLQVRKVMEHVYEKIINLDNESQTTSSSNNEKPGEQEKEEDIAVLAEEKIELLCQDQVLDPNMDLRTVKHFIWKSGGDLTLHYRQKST

IC50 (USP1-UAF1) | IC50 [1] | IC50 ([2]; Homo sapiens) | IC50 [2] | Compound
0.1 to 10 µM | 0.1 to 0.25 µM | 0.25 to 10 µM |  | Cn1cc(C(F)(F)F)nc1-c1ccc(C(C)(O)c2c[nH]c3cnc(-c4cccnc4OCC(F)(F)F)nc23)cc1 (single isomer, unassigned) [Compound 22]
0.1 to 10 µM |  |  |  | CO[C@@H](c1ccc(-c2nc(C(F)(F)F)cn2C)cc1)c1c[nH]c2cnc(-c3c(OC(F)F)ncnc3C3CC3)nc12 (single isomer, unassigned) [Compound 127]
< 0.03 µM |  |  |  | CO[C@H](c1ccc(-c2nc(C(F)(F)F)cn2C)cc1)c1c[nH]c2cnc(-c3c(OC(F)F)ncnc3C3CC3)nc12 (single isomer, unassigned) [Compound 149]
 |  |  | 0.25 to 10 µM | COc1ncnc(C2CC2)c1-c1ncc2[nH]cc(C(C)c3ccc(-c4nc(C(F)(F)F)cn4C)cc3)c2n1 (single isomer, unassigned) [Compound 192]
0.1 to 10 µM | 0.25 to 10 µM | 0.25 to 10 µM |  | COc1ncnc(C2CC2)c1-c1ncc2[nH]cc([C@H](c3ccc(-c4nc(C(F)(F)F)cn4C)cc3)C(C)C)c2n1 (single isomer, unassigned) [Compound 208]
≥ 10 µM | ≥ 10 µM | ≥ 10 µM |  | CN(C)Cc1ccccc1-c1ncc2[nH]cc(C(O)c3ccc(-c4nc(C(F)(F)F)cn4C)cc3)c2n1 (centres unmarked) [Compound 3]
0.1 to 10 µM | 0.25 to 10 µM | ≥ 10 µM |  | CC(C)c1ccccc1-c1ncc2[nH]cc(CN3CCC(c4nc(C(F)(F)F)cn4C)CC3)c2n1 [Compound 6, 2-(2-isopropylphenyl)-7-[[4-[1-methyl-4-(trifluoromethyl)imidazol-2-yl]-1-piperidyl]methyl]-5H-pyrrolo[3,2-d]pyrimidine]
≥ 10 µM | ≥ 10 µM | ≥ 10 µM |  | COc1ncnc(C2CC2)c1-c1ncc2[nH]cc(C(O)c3ccc(-c4nc(C(F)(F)F)cn4C4CN(C)C4)cc3)c2n1 (centres unmarked) [Compound 7, (2-(4-cyclopropyl-6-methoxypyrimidin-5-yl)-5H-pyrrolo[3,2-d]pyrimidin-7-yl)(4-(1-(1-methylazetidin-3-yl)-4-(trifluoromethyl)-1H-imidazol-2-yl)phenyl)methanol]
≥ 10 µM | ≥ 10 µM | ≥ 10 µM |  | CN(C)Cc1ccccc1-c1ncc2[nH]cc(Cc3ccc(-c4nc(C(F)(F)F)cn4C)cc3)c2n1 [Compound 9]
0.1 to 10 µM | 0.25 to 10 µM | ≥ 10 µM |  | CN(c1ccc(-c2nc(C(F)(F)F)cn2C)cc1)c1c[nH]c2cnc(-c3ccccc3C3CC3)nc12 [Compound 13, 2-(2-cyclopropylphenyl)-N-methyl-N-[4-[1-methyl-4-(trifluoromethyl)imidazol-2-yl]phenyl]-5H-pyrrolo[3,2-d]pyrimidin-7-amine]
 | < 0.1 µM | ≥ 10 µM |  | COc1ncnc(C2CC2)c1-c1ncc2[nH]nc(Cc3ccc(-c4nc(C(F)(F)F)cn4C(C)C)cc3)c2n1 [Compound 16, 5-(4-cyclopropyl-6-methoxy-pyrimidin-5-yl)-3-[[4-[1-isopropyl-4-(trifluoromethyl)imidazol-2-yl]phenyl]methyl]-1H-pyrazolo[4,3-d]pyrimidine]
0.1 to 10 µM |  |  |  | COc1ncnc(C2CC2)c1-c1ncc2[nH]cc(C(O)c3ccc(-c4nc(C(F)(F)F)cn4C4CC4)cc3)c2n1 (centres unmarked) [Compound 19, [2-(4-cyclopropyl-6-methoxy-pyrimidin-5-yl)-5H-pyrrolo[3,2-d]pyrimidin-7-yl]-[4-[1-cyclopropyl-4-(trifluoromethyl)imidazol-2-yl]phenyl]methanol]
0.1 to 10 µM | ≥ 10 µM | ≥ 10 µM |  | Cn1cc(C(F)(F)F)nc1-c1ccc(C(O)c2c[nH]c3cnc(-c4cccnc4C4CC4)cc23)cc1 (centres unmarked) [Compound 30, [5-(2-cyclopropylpyridin-3-yl)-1H-pyrrolo[2,3-c]pyridin-3-yl]([4-[1-methyl-4-(trifluoromethyl)imidazol-2-yl]phenyl])methanol]
0.1 to 10 µM | 0.25 to 10 µM | 0.25 to 10 µM |  | Cn1cc(C(F)(F)F)nc1-c1ccc(Cc2c[nH]c3cnc(-c4cccnc4N4CCC45CCOC5)nc23)cc1 (centres unmarked) [Compound 32]
0.1 to 10 µM | 0.25 to 10 µM | 0.25 to 10 µM |  | CC(C)c1ccccc1-c1ncc2[nH]cc(CN3CCN(c4nc(C(F)(F)F)cn4C)CC3)c2n1 [Compound 35, 2-(2-isopropylphenyl)-7-[[4-[1-methyl-4-(trifluoromethyl)imidazol-2-yl]piperazin-1-yl]methyl]-5H-pyrrolo[3,2-d]pyrimidine]
0.1 to 10 µM |  |  |  | Cn1cc(C(F)(F)F)nc1-c1ccc([S+]([O-])c2c[nH]c3cnc(-c4ccccc4C(F)(F)F)nc23)cc1 (centres unmarked) [Compound 36, 7-[4-[1-methyl-4-(trifluoromethyl)imidazol-2-yl]phenyl]sulfinyl-2-[2-(trifluoromethyl)phenyl]-5H-pyrrolo[3,2-d]pyrimidine]
≥ 10 µM |  |  |  | COc1ncnc(C2CC2)c1-c1ncc2[nH]cc(C(O)c3ccc(-c4nc(C#N)cn4C)cc3)c2n1 (centres unmarked) [Compound 37, 2-[4-[[2-(4-cyclopropyl-6-methoxy-pyrimidin-5-yl)-5H-pyrrolo[3,2-d]pyrimidin-7-yl]-hydroxy-methyl]phenyl]-1-methyl-imidazole-4-carbonitrile]

IC50 (USP1-UAF1) | IC50 [1] | IC50 ([2]; Homo sapiens) | IC50 [2] | Compound
≥ 10 µM | ≥ 10 µM | ≥ 10 µM |  | CN1CC(n2cc(C(F)(F)F)nc2-c2ccc(C(O)c3c[nH]c4cnc(-c5cccnc5OC(F)F)nc34)cc2)C1 (centres unmarked) [Compound 38, [2-[2-(difluoromethoxy)-3-pyridyl]-5H-pyrrolo[3,2-d]pyrimidin-7-yl]-[4-[1-(1-methylazetidin-3-yl)-4-(trifluoromethyl)imidazol-2-yl]phenyl]methanol]
< 0.03 µM | < 0.1 µM | ≥ 10 µM |  | COc1ncnc(C2CC2)c1-c1ncc2c(n1)c(Cc1ccc(-c3nc(C(F)(F)F)cn3C)cc1)cn2C [Compound 39, 2-(4-cyclopropyl-6-methoxy-pyrimidin-5-yl)-5-methyl-7-[[4-[1-methyl-4-(trifluoromethyl)imidazol-2-yl]phenyl]methyl]pyrrolo[3,2-d]pyrimidine]
0.1 to 10 µM | 0.25 to 10 µM | ≥ 10 µM |  | Cn1cc(C(F)(F)F)nc1-c1ccc(C(O)c2c[nH]c3cnc(-c4cccnc4C4CC4)nc23)cc1 (centres unmarked) [Compound 40]
0.1 to 10 µM | 0.25 to 10 µM | ≥ 10 µM |  | CN(Cc1ccccc1-c1ncc2[nH]cc(C(O)c3ccc(-c4nc(C(F)(F)F)cn4C)cc3)c2n1)CC(F)(F)F (centres unmarked) [Compound 42]
0.1 to 10 µM | ≥ 10 µM | ≥ 10 µM |  | Cn1cc(C(F)(F)F)nc1-c1ccc(Nc2c[nH]c3cnc(-c4cccnc4C4CC4)nc23)cc1 [Compound 43, 2-(2-cyclopropyl-3-pyridyl)-N-[4-[1-methyl-4-(trifluoromethyl)imidazol-2-yl]phenyl]-5H-pyrrolo[3,2-d]pyrimidin-7-amine]
0.1 to 10 µM | 0.25 to 10 µM | 0.25 to 10 µM |  | Cn1cc(C(F)(F)F)nc1-c1ccc(Cc2c[nH]c3cnc(-c4cccnc4NC4CC4)nc23)cc1 [Compound 44]
0.1 to 10 µM |  |  |  | Cn1cc(C(F)(F)F)nc1-c1ccc(S(=O)(=O)c2c[nH]c3cnc(-c4ccccc4C(F)(F)F)nc23)cc1 [Compound 46, 7-[4-[1-methyl-4-(trifluoromethyl)imidazol-2-yl]phenyl]sulfonyl-2-[2-(trifluoromethyl)phenyl]-5H-pyrrolo[3,2-d]pyrimidine]
0.1 to 10 µM | 0.25 to 10 µM | ≥ 10 µM |  | COc1ncnc(C2CC2)c1-c1ncc2[nH]cc(C(O)c3ccc(-c4nc(C(F)(F)F)cn4C)cc3)c2n1 (centres unmarked) [Compound 49, [2-(4-cyclopropyl-6-methoxy-pyrimidin-5-yl)-5H-pyrrolo[3,2-d]pyrimidin-7-yl]-[4-[1-methyl-4-(trifluoromethyl)imidazol-2-yl]phenyl]methanol]
0.1 to 10 µM | 0.25 to 10 µM | 0.25 to 10 µM |  | CC(C)Nc1ncccc1-c1ncc2[nH]cc(Cc3ccc(-c4nc(C(F)(F)F)cn4C)cc3)c2n1 [Compound 50, N-isopropyl-3-[7-[[4-[1-methyl-4-(trifluoromethyl)imidazol-2-yl]phenyl]methyl]-5H-pyrrolo[3,2-d]pyrimidin-2-yl]pyridin-2-amine]
0.1 to 10 µM |  |  |  | Cn1cc(C(F)(F)F)nc1-c1ccc(Cc2c[nH]c3cnc(-c4cccnc4N4CC(F)C4)nc23)cc1 [Compound 68]
0.1 to 10 µM |  |  |  | CCn1c(C(F)(F)F)cnc1-c1ccc(Cc2c[nH]c3cnc(-c4c(OC)ncnc4C4CC4)nc23)cc1 [Compound 70]
< 0.03 µM |  |  |  | COc1ncnc(C(C)C)c1-c1ncc2[nH]nc(Cc3ccc(-c4nc(C(F)(F)F)cn4C)cc3)c2n1 [Compound 112]
< 0.03 µM |  |  |  | Cn1cc(C(F)(F)F)nc1-c1ccc(Cc2c[nH]c3cnc(-c4ccccc4C(C)(C)O)nc23)cc1 [Compound 157, 2-(2-(7-(4-(1-methyl-4-(trifluoromethyl)-1H-imidazol-2-yl)benzyl)-5H-pyrrolo[3,2-d]pyrimidin-2-yl)phenyl)propan-2-ol]
< 0.03 µM |  |  |  | COc1ncnc(C(C)(C)C)c1-c1ncc2[nH]nc(Cc3ccc(-c4nc(C(F)(F)F)cn4C)cc3)c2n1 [Compound 158]
< 0.03 µM |  |  |  | Cn1cc(C(F)(F)F)nc1-c1ccc(Cc2n[nH]c3cnc(-c4c(OCF)ncnc4C4CC4)nc23)cc1 [Compound 169]
< 0.03 µM |  |  |  | COc1ncnc(C2CC2)c1-c1ncc2c(n1)c(Cc1ccc(-c3nc(C(F)(F)F)cn3C)cc1)cn2C1CC1 [Compound 170, 5-cyclopropyl-2-(4-cyclopropyl-6-methoxy-pyrimidin-5-yl)-7-[[4-[1-methyl-4-(trifluoromethyl)imidazol-2-yl]phenyl]methyl]pyrrolo[3,2-d]pyrimidine]
0.1 to 10 µM |  |  |  | COc1ncnc(C2CC2)c1-c1nc(CN)c2[nH]cc(Cc3ccc(-c4nc(C(F)(F)F)cn4C)cc3)c2n1 [Compound 201]

Reference: patent US20240182481A1 (Tango Therapeutics, Inc., priority 2021, published 2024)
